Measurements: patent US20100272696A1, “Human Bone-Forming Cells In The Treatment of Inflammatory Rheumatic Diseases” (BONE THERAPEUTICS S.A., priority 2007, published 2010)

What was measured:
[1] = system: Carrageenan-Induced Ankle/Paw Inflammation; test: Model of Carrageenan-Induced Ankle/Paw Inflammation (1); assay type: in vivo, SWISS mice; details: DEX 1 mg/kg, OB 1*10^6, FIG. 3
Experimental: Sigma, Switzerland) in PBS into the hind paw of 8 weeks old SWISS mice; each animal receiving a single injection in each hind paw (Table 3). […] Sigma Switzerland) at a concentration of 1 mg/kg, or 1*10^6 human bone-forming cells (OB) (derived from bone marrow mesenchymal stromal cells as described in Example 1A) or a combination of DEX and OB. [table]

[2] = system: Carrageenan-Induced Ankle/Paw Inflammation; test: Model of Carrageenan-Induced Ankle/Paw Inflammation (2); assay type: in vivo, SWISS mice; details: DEX 1 mg/kg, OB 1*10^6, FIG. 4
Experimental: Inflammation was induced by injection of a solution containing 1% lambda carrageenan (CARRA; Sigma, Switzerland) in PBS into the hind paw of 8 weeks old SWISS mice; each animal receiving a single injection in each hind paw (Table 4). Carrageenan injected animals received immediately after injection or PBS only, or a solution of Dexamethasone (DEX; Sigma Switzerland) at a concentration of 1 mg/kg, or 1*10^6 human bone-forming cells (OB) (derived from bone marrow mesenchymal stromal cells as described in Example 1A).
Under isoflurane sedation, the circumference of ankles and paws was measured using a digital caliper before the injection at T0 and at T1, T4, T6 and T24; respectively before CARRA administration, and 1 h, 4 h, 6 h and 24 hours after the injection.

In the case of C[C@@H]1C[C@H]2[C@@H]3CCC4=CC(=O)C=C[C@]4(C)[C@@]3(F)[C@@H](O)C[C@]2(C)[C@@]1(O)C(=O)CO [Dexamethasone], the “inhibition of inflammation (ankle diameter)” value ([1]; 1 h after carrageenan) is reported as 100%, the “inhibition of inflammation (ankle diameter)” value ([1]; 4 h after carrageenan) is reported as 100% and the “inhibition of inflammation (paw diameter)” value (“inhibition … (paw diameter)” below) ([2]; 1 h after carrageenan) is reported as 100%. For the same compound, the “inhibition … (paw diameter)” value ([2]; 6 h after carrageenan) was 70% and the “inhibition … (paw diameter)” value ([2]; 24 h after carrageenan) was 38%.
